According to patent US10653681B2, “Analgesic compounds” (Recurium IP Holdings, LLC, priority 2016, dated 2020):

System: male ICR mice
Assay: Formalin paw test
Type: in vivo, mouse
Conditions: for Early Phase: early/acute phase (0-10 minutes) after 2% formalin into hind paw; for Late Phase: late/tonic phase (10-35 minutes) after 2% formalin into hind paw
Protocol: One test compound or the vehicle was administered to each mouse in each test group (8 mice per group). Non-fasted male ICR mice weighing 23±3 g were used. Test compounds were administered at a concentration of 30 mg/kg, 100 mg/kg or 200 mg/kg; morphine was administered at a concentration of 10 mg/kg; and acetaminophen was administered at a concentration of >100 mg/kg. The control group received the vehicle (5% DMSO/15% PEG400/10% HPbCD/0.9% Saline). After 10 minutes, a 2% formalin solution (0.02 mL) was injected into one hind paw (sub-plantar) of each mouse. Responses were measured every 5 minutes after the formalin injection for 35 minutes.
The results in Table A are for oral administration; the results in Table B are for intraperitoneal administration; the results in Table C are for intravenous administration. In Tables A, B, and C, ‘A’ designates <70 licks/sec, ‘B’ designates ≥70 licks/sec and <165 licks/sec, and ‘C’ designates ≥165 licks/sec.

[1] = intraperitoneal administration, 30 mg/kg
[2] = intravenous administration, 100 mg/kg

| Structure (SMILES) | Early Phase [1] | Late Phase [1] | further results |
| --- | --- | --- | --- |
| CC(C)(C)c1nnc(CN)s1 [Compound 3] | A (‘A’ designates <70 licks/sec) | B (‘B’ designates ≥70 licks/sec and <165 licks/sec) | – |
| Cc1ncc(CN)s1 [Compound 13] | B (‘B’ designates ≥70 licks/sec and <165 licks/sec) | C (‘C’ designates ≥165 licks/sec) | – |
| NCCc1ccc(C(F)(F)F)cc1 [Compound 25] | A (‘A’ designates <70 licks/sec) | B (‘B’ designates ≥70 licks/sec and <165 licks/sec) | – |
| NCCc1nc(C(F)(F)F)cs1 [Compound 9] | A (‘A’ designates <70 licks/sec) | A (‘A’ designates <70 licks/sec) | – |
| CC(C)(C)c1nnc(N)s1 [Compound 4] | B (‘B’ designates ≥70 licks/sec and <165 licks/sec) | C (‘C’ designates ≥165 licks/sec) | – |
| Nc1nnc(C(F)(F)F)s1 [Compound 5] | B (‘B’ designates ≥70 licks/sec and <165 licks/sec) | C (‘C’ designates ≥165 licks/sec) | – |
| CC(C)(C)c1nnc(N)o1 [Compound 6] | B (‘B’ designates ≥70 licks/sec and <165 licks/sec) | C (‘C’ designates ≥165 licks/sec) | – |
| Cc1cc(CN)nn1C [Compound 17] | B (‘B’ designates ≥70 licks/sec and <165 licks/sec) | B (‘B’ designates ≥70 licks/sec and <165 licks/sec) | – |
| NCc1ccc(C(F)(F)F)cc1 [Compound 18] | B (‘B’ designates ≥70 licks/sec and <165 licks/sec) | C (‘C’ designates ≥165 licks/sec) | – |
| Nc1cccc(C(F)(F)F)n1 [Compound 21] | B (‘B’ designates ≥70 licks/sec and <165 licks/sec) | C (‘C’ designates ≥165 licks/sec) | – |
| Nc1nccc(C(F)(F)F)n1 [Compound 20] | B (‘B’ designates ≥70 licks/sec and <165 licks/sec) | C (‘C’ designates ≥165 licks/sec) | – |
| NCc1cccc(C(F)(F)F)n1 [Compound 24] | B (‘B’ designates ≥70 licks/sec and <165 licks/sec) | C (‘C’ designates ≥165 licks/sec) | – |
| CC(C)(C)c1nccc(N)n1 [Compound 19] | B (‘B’ designates ≥70 licks/sec and <165 licks/sec) | C (‘C’ designates ≥165 licks/sec) | – |
| NCc1nc(C(F)(F)F)cs1 [Compound 8] | A (‘A’ designates <70 licks/sec) | A (‘A’ designates <70 licks/sec) | – |
| CC(=O)Nc1ccc(C(F)(F)F)cc1 [Compound 29] | – | – | Early Phase (oral administration, 200 mg/kg): A (‘A’ designates <70 licks/sec); Late Phase (oral administration, 200 mg/kg): A (‘A’ designates <70 licks/sec) |
| CC(C)(C)c1csc(CN)n1 [Compound 7] | B (‘B’ designates ≥70 licks/sec and <165 licks/sec) | A (‘A’ designates <70 licks/sec) | – |
| CCn1cc(CN)cn1 [Compound 15] | B (‘B’ designates ≥70 licks/sec and <165 licks/sec) | A (‘A’ designates <70 licks/sec) | – |
| CC(=O)NCc1ccc(C(F)(F)F)cc1 [Compound 27] | – | – | Early Phase [2]: A (‘A’ designates <70 licks/sec); Late Phase [2]: A (‘A’ designates <70 licks/sec) |
| Cc1nc(CN)cs1 [Compound 14] | B (‘B’ designates ≥70 licks/sec and <165 licks/sec) | C (‘C’ designates ≥165 licks/sec) | – |
| CC(C)(C)c1csc(N)n1 [Compound 10] | A (‘A’ designates <70 licks/sec) | A (‘A’ designates <70 licks/sec) | – |
| CC(=O)Nc1ccc(C(C)(C)C)cc1 [Compound 28] | – | – | Early Phase (oral administration, 200 mg/kg): B (‘B’ designates ≥70 licks/sec and <165 licks/sec); Late Phase (oral administration, 200 mg/kg): B (‘B’ designates ≥70 licks/sec and <165 licks/sec) |
| Cc1nc(N)oc1C [Compound 16] | A (‘A’ designates <70 licks/sec) | A (‘A’ designates <70 licks/sec) | – |
| Nc1nnc(C(F)(F)F)o1 [Compound 2] | B (‘B’ designates ≥70 licks/sec and <165 licks/sec) | C (‘C’ designates ≥165 licks/sec) | – |
| CC(C)(C)C(=O)Nc1ccc(O)cc1 [Compound 26] | – | – | Early Phase (oral administration, 200 mg/kg): B (‘B’ designates ≥70 licks/sec and <165 licks/sec); Late Phase (oral administration, 200 mg/kg): B (‘B’ designates ≥70 licks/sec and <165 licks/sec) |
| Nc1ncc(C(F)(F)F)cn1 [Compound 22] | B (‘B’ designates ≥70 licks/sec and <165 licks/sec) | C (‘C’ designates ≥165 licks/sec) | – |
| Cc1coc(N)n1 [Compound 1] | B (‘B’ designates ≥70 licks/sec and <165 licks/sec) | C (‘C’ designates ≥165 licks/sec) | – |
